Results: patent US10611797B2, “Peptide having anticancer activity, and pharmaceutical composition and dietary supplement composition for preventing and treating cancer, both of which contain same as active ingredient” (IUCF-HYU (INDUSTRY-UNIVERSITY COOPERATION FOUNDATION …, priority 2015, dated 2020)

Columns and labels:
[1] = tested on: human embryonic stem cell line (H9) and co-cultured cells; test: Microscopy of human embryonic stem cell line (H9) in co-culture; format: cell-based
Protocol: Two colonies of a human embryonic stem cell line (H9) per well were inoculated into 96-well plates on which normal embryonic epithelial cells or embryonic epithelial cells fluorescently stained with rhodamine were plated, followed by culture for 24 h.

[2] = tested on: MDA-MB-231 cell line (LM1 cells) tumors and lung metastasis; test: Mouse model transplanted with MDA-MB-231 (LM1) breast cancer cell line; format: in vivo
Protocol: The collected blood was subjected to a fundamental CBC using a Coulter LH 750 Hematology analyzer. After the tumors were weighed, the tumors and the major organs were stained with 4% formaldehyde. Tissue slices were prepared through paraffin section and stained with hematoxylin/eosin. Acquired data were statistically analyzed using the Excel program.

[3] = tested on: U343 glioblastoma cell line tumors; test: Mouse model transplanted with U343 glioblastoma cell line; format: in vivo; details: 3 mg/kg directly into tumor sites every three days, day 70, vs physiological saline
Protocol: U343 glioblastoma cell line (2.5×10^6 cells/50 μl) was injected subcutaneously into the backs of 5-week-old male BALB/C nude mice (n=6/group), Peptide 5-2C (3 mg/kg) was directly injected into the tumor sites every three days from the time when the tumor sizes increased to about 8 mm^2, the body weights of the mice and the volumes of the tumors were measured, the mice were sacrificed on day 70 after the peptide injection, and the tumors, blood, and major organs were excised. The tumor sizes were measured using a vernier calipers and the tumor volumes were calculated by (major axisxminor axis^2)/2. Peripheral blood was collected from the ophthalmic artery of each mouse using a microcapillary coated with EDTA and stored in a sample tube coated with 5.4 mg EDTA. The tumors and the major organs were excised by dissection. The collected blood was subjected to a fundamental complete blood cell count (CBC) using a Coulter LH 750 Hematology analyzer. After the tumors were weighed, the tumors and the major organs were stained with 4% formaldehyde. Tissue slices were prepared through paraffin section and stained with hematoxylin/eosin. Acquired data were statistically analyzed using the Excel program.

[4] = tested on: cancer cell lines (HepG2, Hep3B, 293T, MCF-7, MDA-MB-231, K562, HEL, HL60, U251, U373MG, U87MG); test: Microscopic observation of growth inhibition and apoptosis, cancer cell lines; format: cell-based, human; details: 2 μM, 48 h
Protocol: (§2) Liver cancer cell lines (HepG2, Hep3B), a human embryonic kidney cell line (293T), breast cancer cell lines (MCF-7, MDA-MB-231), blood tumor cell lines (K562, HEL, HL60), glioblastoma cell lines (U251, U373MG, U87MG), a mammary epithelial cell line (MCF10A), a lung epithelial cell line (BEAS2B), human mesenchymal stem cells (hMSCs), and mouse primary T cells (resting and activated T cells) were inoculated into 96-well plates at a density of 3,000 cells/well, supplemented with 50 μl of culture solution, and cultured at 37° C. and 5% CO2 for 1 h. […] After completion of the culture, cells were observed under an inverted phase contrast microscope and their morphological changes were imaged.

CP2c = test: Luciferase reporter assay of CP2c transcriptional activity in 293T cells; format: cell-based, human; details: 2 μM, 48 h, wild-type CP2c binding sites, compared with FQI1
Protocol: 293T cells were inoculated into a 12-well plate at a density of 1×10^5 cells/well. 12 h after inoculation, cells were transfected with combinations of a reporter vector (the wild-type reporter links the enhancer sequence of the GATA-1 gene including twice repeated CP2c-binding sites to the upstream of the luciferase gene and Mut 1/3, Mut 2/4, and Mut 1-4 reporters cause mutations of the CP2c binding sites present in the enhancer sequence) and various Flag-CP2c, HA-CP2b, and HA-PIAS1 expression vectors by using the effectene method. After 1-h culture, cells were treated with FQI1, Peptide 5C, and Peptide 5-2C at concentrations of 2 μM, followed by 48-h culture. Cells were harvested and lysed in 250 μl of passive cell lysis buffer (Promega) to obtain an extract. 20 μl of the cell extract and a dual-luciferase assay kit (Promega) were used to measure the activity of the labeled luciferase gene in GLOMAX (Promega) (the expression of each expression vector was confirmed by Western blotting).

[5] = tested on: breast cancer cell lines (MCF7, MDA-MB-231); test: MTT cell viability, breast cancer cell lines; format: cell-based, human; details: 0-10 μM, 24-96 h
Protocol: (§3) Liver cancer cell lines (HepG2, Hep3B) were inoculated into 96-well plates at a density of 3000 cells/well, and then 50 μl of culture solution was added thereto. Cells were cultured at 37° C. and 5% CO2 for 1 h. […] Cells were cultured at 37° C. and 5% CO2 for 24, 48, 72, and 96 h. After completion of the culture, the remaining culture solution was removed from the well plates, the cultures were diluted with MTT solution (3-(4,5-dimethylthiazol-2-yl)-2,5-diphenyltetrazole bromide) to a final density of 500 μg/ml, and cells were cultured at 37° C. and 5% CO2 for 3 h. The remaining MTT solution was removed and 150 μl of dimethyl sulfoxide (DMSO) was added. The reaction was carried out at room temperature for 20 min. After completion of the reaction, absorbance was measured using a microplate reader.

MEL cell line = test: Cell cycle analysis by FACS, MEL; format: cell-based, mouse; details: 0, 1, 2, 3, 10 μM, 48 h
Protocol: (§1) 5×10^5 cells of each of MEL, K562, MCF-10A, and MDA-MB-231 cell lines were inoculated into 100 mm dishes. 24 h after inoculation, cells were treated with Peptide 5-2C such that the final concentrations were 0, 1, 2, 3, and 10 μM. 48 h after Peptide 5-2C treatment, cells were collected by trypsin treatment. Thereafter, 1×10^6 cells were suspended in 0.5 ml PBS and dissociated into single cells by pipetting. The cell suspension was transferred to a centrifugal tube containing 4.5 ml of 70% ethanol and allowed to stand at 4° C. for 2 h to immobilize the cells. A cell sediment was obtained by centrifugation, washed with 5 ml of PBS solution, sufficiently suspended in 1 ml of PI staining solution, and stained in the dark for 30 min. Cell fluorescence was measured in BD FACSAria and cell cycle was analyzed using the software provided from the same company.

[6] = tested on: MCF-7, 293T, MDA-MB-231 mammospheres; test: Mammosphere culture of cancer cell lines, microscopy; format: cell-based, human; details: 2 μM, 4 days
Excerpt: Cancer cell lines (MCF-7, 293T, MDA-MB-231) were inoculated at a density of 1×10^4 cells/ml into polyHEMA-coated 100 phi Petri dishes. […] Cells were observed under an inverted phase contrast microscope once a day and their morphological changes were imaged. […] Mammosphere culture of cancer cell lines is known to increase the number of cancer stem cells.

[7] = tested on: liver cancer cell lines (HepG2, Hep3B); test: MTT cell viability, liver cancer cell lines; format: cell-based, human; details: 0-10 μM, 24-96 h
Protocol: as §3

[8] = tested on: human blood cancer cell lines (K562, HEL, HL60); test: MTT cell viability, human blood cancer cell lines; format: cell-based; details: 0-10 μM, 24-96 h
Protocol: as §3

MCF7 cell line = test: Western blotting of cell cycle-related marker proteins in MCF7; format: cell-based, human; details: 2 μM for 0-72 h; 1, 2, 3 μM for 48 h
Protocol: 1×10^5 cells of MCF7 breast cancer cell line were inoculated into a 6-well plate. 24 h after inoculation, cells were treated with Peptide 5-2C at a final concentration of 2 μM. After 0, 24, 48, and 72 h, cell extracts were collected in the same manner as in Example 6. Western blotting was performed using various antibodies against cell cycle-related marker genes. On the other hand, cell extracts were obtained from the groups treated with Peptide 5-2C at final concentrations of 1, 2, and 3 μM for 48 h and Western blotting was performed in the same manner.

[9] = tested on: human embryonic stem cells (hESCs, H9)
Excerpt: MEF cells labeled with rhodamine were often used to distinguish them from hESC-derived cells.

[10] = tested on: normal cell lines (MCF10A, BEAS2B, hMSCs, mouse primary T cells)
Protocol: as §2

[11] = tested on: human embryonic kidney cancer cell line (293T); test: MTT cell viability, 293T; format: cell-based; details: 0-10 μM, 24-96 h
Protocol: as §3

[12] = tested on: A431 human epidermoid carcinoma cell line tumors; test: Mouse model transplanted with A431 epidermoid carcinoma cell line; format: in vivo; details: 1.7 and 3.5 mg/kg, tail vein, every other day, five times, day 13
Protocol: After the tumors were weighed, the tumors and the major organs were stained with 4% formaldehyde. Tissue slices were prepared through paraffin section and stained with hematoxylin/eosin. Acquired data were statistically analyzed using the Excel program.

MCF-10A cell line = test: Cell cycle analysis by FACS, MCF-10A; format: cell-based, human; details: 0, 1, 2, 3, 10 μM, 48 h
Protocol: as §1

[13] = tested on: glioblastoma cell lines (U343, U373MG, U251, U87MG); test: IC50 of Peptide 5-2C over time in glioblastoma cell lines; format: cell-based, human; details: one-time treatment
Protocol: After one-time treatment of various glioblastoma cell lines (U343, U373MG, U251, and U87MG) with Peptide 5-2C, IC50 values were measured with time using the Graph Prism Pad 6 program.

[14] = tested on: glioblastoma cell lines (U251, U87MG, U343); test: MTT cell viability, glioblastoma cell lines; format: cell-based, human; details: 0-10 μM, 24-96 h
Protocol: as §3

[15] = tested on: K562 cell line and MDA-MB-231 cell line; test: Cell cycle analysis by FACS, K562 and MDA-MB-231; format: cell-based, human; details: 0, 1, 2, 3, 10 μM, 48 h
Protocol: as §1

[16] = tested on: CD34+ hematopoietic progenitor cells (HPCs); test: Microscopy of hematopoietic progenitor cells and cells differentiating into erythrocytes; format: cell-based, human; details: up to 10 μM, 72 h; days 3, 7, 14 of differentiation
Protocol: Cells were observed under an inverted phase contrast microscope and their morphological changes were imaged. The CD34+ hematopoietic progenitor cells were cultured in IMDM media containing 1% BSA. For differentiation induction into erythrocytes, cells were cultured with EPO, SCF, IL-3, and hydrocortisone for the first 7 days, and thereafter, cultured in media supplemented with EPO, SCF, and IL-3 only.

MDA-MB-231 cell line = test: Electron microscopy of cell morphology, MDA-MB-231; format: cell-based, human; details: 2 μM, 24 and 48 h
Excerpt: The collected cells were washed once with physiological saline.

[17] = tested on: human mesenchymal stem cells (hMSC)
[18] = 1.7 and 3.5 mg/kg, tail vein, every three days, five times, day 30, vs control

Protocol for MCF10A cell line: 1.5×10^6 cells of MDA-MB-231 cell line and 5×10^5 cells of MCF10A cell line were inoculated into 100 mm dishes. […] After culture for 24 and 48 h, cells were collected. The culture solution was centrifuged and surface adherent cells were collected by trypsin treatment. The collected cells were washed once with physiological saline. The cell sediment was directly treated twice with 2.5% aqueous glutaraldehyde solution (each for 10 min). Samples for electron microscopy were prepared and imaged in accordance with general methods.

NYPQRPCRGDKGPDC [Peptide 5-2C, Ac-NYPQRPCRGDKGPDC-Amide]
death of embryonic stem cells and co-cultured cells [1]: none of the embryonic stem cells and the co-cultured cells died
intracellular structural abnormalities in MCF10A (electron microscopy) (MCF10A cell line): no intracellular structural abnormalities were observed
reduction of number of tumor foci metastasized to the lung [2, 18]: ~50%
reduction of tumor weights [2, 18]: ~30%
number of leukocytes ([2]; control tumor mice had twice the number of normal mice): close to the normal value
body weight, major CBC indices, histologic/anatomic characteristics of major organs [3]: there were no differences in the weight of the mice, the major CBC indices of the mice, and the histologic/anatomic characteristics of the major organs
reduction of tumor volume [3]: ~60%
reduction of tumor weight [3]: ~60%
growth inhibition and apoptosis induction of cancer cell lines (microscopy) [4]: specifically inhibited the growth of the cancer cell lines and induced apoptosis
CP2c-mediated transcriptional activity (luciferase reporter) (CP2c): effectively inhibit CP2c-mediated transcriptional activity compared to FQI1
relative viability (MTT), breast cancer cell lines, compared with FQI1 [5]: more effectively inhibited the growth of the breast cancer cell lines and induced apoptosis than FQI1
number of cells in subG1 phase in MEL (MEL cell line): the number of cells in the subG1 phase was significantly increased only at high concentrations
formation of mammospheres and cell growth [6]: the formation of mammospheres was effectively inhibited and cell growth was decreased
relative viability (MTT), liver cancer cell lines, compared with FQI1 [7]: more effectively inhibited the growth of the liver cancer cell lines and induced apoptosis than FQI1
relative viability (MTT), K562, HEL, HL60, compared with FQI1 [8]: slightly effectively inhibited the growth of the glioblastoma cell lines and induced apoptosis compared to FQI1
expression of cell cycle-related marker proteins (MCF7 cell line): the expressions of Cyclin E, p21, and p53 increased gradually and the expressions of CDK1 and Cyclin B1 decreased gradually
cytotoxicity (MTT) in hESCs [9]: no substantial cytotoxicity even at high concentrations
effect on normal cell lines (microscopy) [10]: without substantially affecting the normal cell lines
relative viability (MTT), 293T, compared with FQI1 [11]: inhibited the growth of the glioblastoma cell lines and induced apoptosis similarly to FQI1
histologic/anatomic characteristics of the major organs [12]: no significant changes in the histologic/anatomic characteristics of the major organs
reduction of tumor volume [12]: ≥ 70%
reduction of tumor weight [12]: ≥ 60%
cell cycle changes in MCF-10A (MCF-10A cell line): no substantial changes in cell cycle were observed
IC50 at 48 h compared with 96 h [13]: the IC50 values after 48 h were similar to those after 96 h
relative viability (MTT), glioblastoma cell lines, compared with FQI1 [14]: more effectively inhibited the growth of the glioblastoma cell lines and induced apoptosis than FQI1
cell cycle phase distribution in K562 and MDA-MB-231 [15]: the number of cells in the S phase was decreased, the number of cells in the G2/M phase was increased, and an increase in the number of cells in the subG1 phase was dependent on the concentration of Peptide 5-2C
growth inhibition and apoptosis of HPCs and cells differentiating into erythrocytes (microscopy) [16]: growth inhibition and apoptosis of the cells were not observed
intracellular structural abnormalities in MDA-MB-231 (electron microscopy) (MDA-MB-231 cell line): significantly different intracellular structural abnormalities were observed in the Peptide 5-2C-treated group compared to in the FQI1-treated group
cytotoxicity (MTT) in hMSC [17]: no substantial cytotoxicity even at high concentrations
